In patent US20100168085A1, “Dopamine and agonists and antagonists thereof for modulation of suppressive activity of CD4+CD25+ regulatory T cells” (YESA RESEARCH AND DEVELOPMENT CO. LTD. at the Weizmann …, priority 2003, published 2010):
Marks after values point to notes of the source that are not given here.

Tests used:
[1] = test system: D5-R transcripts in Treg and Teff; conditions: 2 h with 10^−5 M
Experimental: (xx) Polymerase chain reaction (PCR). Total RNA was purified with the RNeasy Mini Kit (Qiagen, Germantown, Md.) and transcribed into cDNA using poly dT primers. For PCR the following primers were used: […]
This was done by assaying the expression of the dopamine type-1 receptors, D1-R and D5-R, in Treg and Teff, in the absence and in the presence of dopamine (incubation of the cells for 2 h with 10^−5 M dopamine).

[2] = test system: suppressive activity of CD4+CD25+ regulatory T cells (Treg) on Teff proliferation; test: Inhibition assay (co-culturing of Teff with Treg), [3H]-thymidine incorporation; format: cell-based, mouse; conditions: for Inhibitory effect on Treg activity: freshly isolated (nonactivated) Treg; for Effect on Treg suppressive activity: activated Treg
Experimental: (xvi) Activation of CD4^+CD25^+ regulatory T cells. Purified regulatory T cells (Treg; 0.5×10^6 cells/mL) were activated in RPMI medium supplemented with L-glutamine (2 mM), 2-mercaptoethanol (5×10^−5 M), sodium pyruvate (1 mM), penicillin (100 IU/mL), streptomycin (100 μg/mL), nonessential amino acids (1 mL/100 mL), and autologous serum 2% (vol/vol) in the presence of mrIL-2 (5 ng/mL) and soluble anti-CD3 antibodies (1 ng/mL). Irradiated (2500 rad) splenocytes (1.5×10^6 cells/mL) were added to the culture. Cells were activated for 24 or 96 h. In some of the 96-h experiments, fresh dopamine was added to the culture every 24 h during activation.
(xvii) Inhibition assay (co-culturing of Teff with Treg). Naïve effector T cells (Teff; 50×10^3 cells/well) were co-cultured with decreasing numbers of activated Treg for 72 h in 96-well flat-bottomed plates in the presence of irradiated splenocytes (10^6/mL) supplemented with anti-CD3 antibodies. [^3H]-thymidine (1 μCi) was added for the last 16 h of culture. After the cells were harvested, their [^3H]-thymidine content was analyzed by the use of […].
In this experiment, we examined whether dopamine acts on Treg and alters their suppressive effect on Teff. Suppression of proliferation of Teff, assayed by [^3H]thymidine incorporation, was used as a measure of suppressive effect of Treg (Thornton and Shevach, 1998).
Shevach, 1998, 2000). Inhibition of Treg proliferation, assayed by [^3H]thymidine incorporation, can therefore be taken as a measure of the suppressive effect. We examined the ability of major neurotransmitters and neuropeptides (dopamine, norepinephrine, substance P, and serotonin) to alleviate the Treg-induced suppression of Teff in vitro. Each compound was tested at several concentrations. […] After incubating the activated Treg for 2 h with a neurotransmitter or a neuropeptide, we washed the cells and then co-cultured them with Teff.

[3] = test system: IL-2 production by Treg and Teff; conditions: media conditioned 48 h, without mrIL-2
Experimental: (§1) (x) Enzyme-linked immunosorbent assay. Treg or Teff (0.5×10^6 cells/ml) were cultured for 48 h in the presence of anti-CD3 and anti-CD28. After 48 h the cells were centrifuged and their supernatants were collected and sampled. Concentrations of IL-2 in the samples were determined by the use of sandwich enzyme-linked immunosorbent assay (ELISA) kits (R&D Systems, Minneapolis, Minn.). For detection of secreted IL-10 cells were centrifuged every 24 h and replaced with a fresh medium. Supernatants obtained from cells after 24, 48 and 72 h in culture were subjected to ELISA kit (Diaclone Research, Fleming, France). The plates were developed using a 3,3′,5,5′-tetramethyl-benzidine liquid substrate system (Sigma, St. Louis, Mo.). The reaction was stopped by adding 1M H3PO4. Results for each experiment were calculated as the amount of secreted cytokine per 1 ml of sample, after subtraction of the background levels of the medium.
It should be noted that activation of both T cell populations was carried out in the absence of mrIL-2.

[4] = test system: mice, glutamate-induced retinal ganglion cell death; test: Intravitreal glutamate toxicity, retinal ganglion cell survival; format: in vivo, mouse
Experimental: (iii) Intravitreal glutamate injection. The right eyes of anesthetized mice were punctured with a 27-gauge needle in the upper part of the sclera, and a 10-μL Hamilton syringe with a 30-gauge needle was inserted as far as the vitreal body. A total volume of 1 μl, of L-glutamate (400 nmol) dissolved in saline was injected into the eye.
(iv) Retrograde labeling of retinal ganglion cells. Mice were anesthetized and placed in a stereotactic device. The skull was exposed and kept dry and clean. The bregma was identified and marked. The designated point of injection was at a depth of 2 mm from the brain surface, 2.92 mm behind the bregma in the anteroposterior axis and 0.5 mm lateral to the midline. A window was drilled in the scalp above the designated coordinates in the right and left hemispheres. The neurotracer dye FluoroGold (5% solution in saline; Fluorochrome, Denver, Colo.) was applied (1 μL, at a rate of 0.5 μL/min in each hemisphere) using a Hamilton syringe, and the skin over the wound was sutured.
(xxi) Assessment of mouse retinal ganglion cell survival. Mice were given a lethal dose of pentobarbitone (170 mg/kg). Their eyes were enucleated and the retinas were detached and prepared as flattened whole mounts in 4% paraformaldehyde solution. Labeled cells from 4-6 selected fields of identical size (0.7 mm^2) were counted. The selected fields were located at approximately the same distance from the optic disk (0.3 mm) to overcome the variation in RGC density as a function of distance from the optic disk. Fields were counted under the fluorescence microscope (magnification ×800) by observers blinded to the identity of the retinas. The average number of RGCs per field in each retina was calculated.
Injection of glutamate into the eyes of adult mice causes retinal ganglion cell death that is measurable 1 week after the injection (Mizrahi et al., 2002; Schori et al., 2001a; Katayama et al., 1990). We injected Balb/c mice intraperitoneally (i.p.) with the dopamine, or its specific D1-type agonist SKF-38393 (3.3 mg/kg), or its specific D1-type antagonist SCH-23390 (3 mg/kg), immediately after their exposure to glutamate toxicity. We also injected SCID Balb/c mice with SKF-38393 (3.3 mg/kg) immediately after glutamate intoxication.
Immediately after glutamate intoxication mice were systemically injected with the indicated drugs. Neuronal survival was determined ten days later (see Materials and Methods). The results are expressed by changes (in percentage) in neuronal survival in treated mice relative to untreated mice. Each value represents a mean±SEM of a group of at least 5 animals, and each experiment was performed at least twice, independently. Asterisks (***, P<0.001; **, P<0.01) indicate statistical significance of the presented data from a single experiment using a Student's T-test statistical analysis. (NT—not tested; ns—no statistical significance).

IL-10 production by Treg = conditions: 10^−5 M; 24 h, 48 h and 72 h
Experimental: as §1

[5] = Teff incubated 2 h with 10^−5 M

In the case of NCCc1ccc(O)c(O)c1 [dopamine, 3,4-dihydroxyphenethylamine], the “Increase of D5-R transcripts in Teff” value [1] is reported as 10 fold, the “Number of D5-R transcripts in Treg” value [1] is reported as “unchanged” and the “Proliferation of Teff co-cultured with activated Treg incubated with compound versus Treg not incubated” value ([2]; 10^−5 M, 2 h, Treg activated 24 h with anti-CD3 and IL-2) is reported as “more than twofold higher”. For the same compound, the “Inhibitory effect on Treg activity” value ([2]; 10^−5 and 10^−7 M) was “reproduced”, the “Effect on Treg suppressive activity” value ([2]; 10^−7 M, 2 h) was “significant effect” and the “Effect on Treg suppressive activity” value ([2]; 10^−9 M, 2 h) was “no significant effect”. For the same compound, the “Inhibitory effect on Treg activity” value ([2]; 10^−9 M) was “slight and not statistically significant”, the “Direct effect on Teff proliferation” value [2, 5] was “did not differ” and the “Susceptibility of Teff to Treg suppression” value [2, 5] was “did not alter the susceptibility of Teff to Treg suppression”. The “Teff proliferation with treated versus untreated activated Treg” value ([2]; Treg activated 96 h, 10^−5 M for 2 h at end of activation) was “significantly higher”, the “Extent of effect on Treg suppressive activity” value ([2]; any of the concentrations tested) was “only partial” and the “IL-2 level secreted by Teff” value [3] was “not affected”. The “Production of IL-2 by Treg” value [3] was “not detected”, the “Increase in neuronal survival relative to PBS-treated glutamate-injected controls” value ([4]; Balb/c, single i.p. injection, dopamine 0.4 mg/kg, SKF-38393 3.3 mg/kg) was 18±2.5% and the “Changes in neuronal survival in treated relative to untreated mice (mean±SEM)” value ([4]; Wild type mice, systemic injection immediately after glutamate intoxication) was 18 ± 2.5*** percentage. For the same compound, the “Amount of IL-10 in media of Treg” value (IL-10 production by Treg) was “significant decrease”.
